From patent publication US8735398B2 (Bristol-Myers Squibb Company, priority 2009, dated 2014)
Like-named read-outs stand apart in the source and are kept apart here.

Test system: HCV 1b genotype
Assay: HCV replicon assay (HCV-neo replicon cells, wild-type)
Assay type: cell-based, Hepatitis C virus
Details: HCV 1b genotype replicon
In short: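 Inhibition was tested in replicon-bearing cells, both wild-type HCV-neo and lines with NS5A resistance substitutions, using the O'Boyle et al. 2005 replicon method or luciferase-reporter formats.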

[1] = Hepatitis C virus, class symbol, read-out: EC50 Range against HCV 1b
[2] = Hepatitis C virus, read-out: EC50 1b
[3] = Hepatitis C virus, class symbols, read-out: EC50 Range against HCV 1b
[4] = class symbol, read-out: EC50 Range against HCV 1b
[5] = class symbols, read-out: EC50 Range against HCV 1b

Compound	EC50 [1]	other results
O=C(Nc1ccc(-c2cc(-c3ccc(NC(=O)[C@@H]4C=CCN4C(=O)C4CC4)cc3)[nH]n2)cc1)[C@@H]1C=CCN1C(=O)C1CC1 [OL-37, (2S,2′S)-N,N′-(1H-pyrazole-3,5-diyldi-4,1-phenylene)bis(1-(cyclopropylcarbonyl)-2,5-dihydro-1H-pyrrole-2-carboxamide)]	1000 to 10000 nM	–
O=C(Nc1ccc(-c2ncc(-c3ccc(NC(=O)[C@@H]4CCCN4C(=O)C4CC4)cc3)o2)cc1)C1CCCN1C(=O)C1CC1 (stereo in doubt) [JG-7, (2S,2′S)-N,N′-(1,3-oxazole-2,5-diyldi-4,1-phenylene)bis(1-(cyclopropylcarbonyl)-2-pyrrolidinecarboxamide)]	100 to 999 nM	–
COc1cc(C(=O)N[C@@H](C)C(=O)Nc2ccc(-c3nnc(-c4ccc(NC(=O)[C@H](C)NC(=O)c5cc(OC)c6ccccc6n5)cc4)o3)cc2)nc2ccccc12 [RK-22, N,N′-(1,3,4-oxadiazole-2,5-diylbis(4,1-phenyleneimino((2S)-1-oxo-1,2-propanediyl)))bis(4-methoxy-2-quinolinecarboxamide)]	100 to 999 nM	–
CC(=O)N1CCC[C@H]1C(=O)Nc1ccc(-c2ccc(-c3ccc(NC(=O)[C@@H]4CCCN4C(C)=O)cc3)s2)cc1 [OL-24, (2S,2′S)-N,N′-(2,5-thienediyldi-4,1-phenylene)bis[1-acetyl-2-pyrrolidinecarboxamide]]	100 to 999 nM	EC50 [2]: 620 nM
CC(C)(C)O[C@@H]1C[C@@H](C(=O)Nc2ccc(-c3cnc(-c4ccc(NC(=O)[C@@H]5C[C@@H](OC(C)(C)C)CN5C(=O)C(C)(C)C)cc4)o3)cc2)N(C(=O)C(C)(C)C)C1 [XY-63, (2S,4R,2′S,4′R)-N,N′-(1,3-oxazole-2,5-diyldi-4,1-phenylene)bis(4-tert-butoxy-1-(2,2-dimethylpropanoyl)-2-pyrrolidinecarboxamide)]	–	EC50 [3]: 100 to 999 nM
O=C(Nc1ccc(-c2cnc(-c3ccc(NC(=O)[C@@H]4CCCN4C(=O)[C@@H]4C[C@@H]5C[C@@H]5N4C(=O)c4ccc(Cl)cc4Cl)cc3)o2)cc1)[C@@H]1CCCN1C(=O)[C@@H]1C[C@@H]2C[C@@H]2N1C(=O)c1ccc(Cl)cc1Cl [Example D-26, (S,S,S,2S,2′S)-N,N′-(4,4′-(oxazole-2,5-diyl)bis(4,1-phenylene))bis(1-((1S,3S,5S)-2-(2,4-dichlorobenzoyl)-2-azabicyclo[3.1.0]hexane-3-carbonyl)pyrrolidine-2-carboxamide)]	–	EC50 [4]: 1000 to 10000 nM; EC50 (read-out: EC50 1b): 3330 nM
O=C(Nc1ccc(-c2cnc(-c3ccc(NC(=O)[C@@H]4CCCN4C(=O)Cn4c(=O)[nH]c5ccccc54)cc3)o2)cc1)[C@@H]1CCCN1C(=O)Cn1c(=O)[nH]c2ccccc21 [JR-9, (2S,2′S)-N,N′-(2,5-oxazolediyldi-4,1-phenylene)bis[1-[(2,3-dihydro-2-oxo-1H-benzimidazol-1-yl)acetyl]-2-pyrrolidinecarboxamide]]	–	EC50 [3]: 100 to 999 nM
O=C(Nc1ccc(-c2cnc(-c3ccc(NC(=O)[C@@H]4CCCN4C(=O)c4cc5ccccc5o4)cc3)o2)cc1)[C@@H]1CCCN1C(=O)c1cc2ccccc2o1 [JG-28, (2S,2′S)-N,N′-(1,3-oxazole-2,5-diyldi-4,1-phenylene)bis(1-(1-benzofuran-2-ylcarbonyl)-2-pyrrolidinecarboxamide)]	100 to 999 nM	–
O=C(Nc1ccc(-c2nc[nH]c2-c2ccc(NC(=O)[C@@H]3CCCN3C(=O)OCc3ccccc3)cc2)cc1)[C@@H]1CCCN1C(=O)OCc1ccccc1 [OL-7, (2S,2′S)-2,2′-[1H-imidazole-4,5-diylbis(4,1-phenyleneiminocarbonyl)]bis-1-pyrrolidinecarboxylic acid, bis(phenylmethyl) ester]	4.57 to 99 nM	–
CC(C)(C)O[C@@H]1C[C@@H](C(=O)Nc2ccc(-c3cnc(-c4ccc(NC(=O)[C@@H]5C[C@@H](OC(C)(C)C)CN5C(=O)c5ccccc5)cc4)o3)cc2)N(C(=O)c2ccccc2)C1 [XY-73, (2S,4R,2′S,4′R)-N,N′-(1,3-oxazole-2,5-diyldi-4,1-phenylene)bis(1-benzoyl-4-tert-butoxy-2-pyrrolidinecarboxamide)]	–	EC50 [3]: 1000 to 10000 nM
C[C@H](NC(=O)[C@](C)(O)c1ccccc1)C(=O)Nc1ccc(-c2cc(-c3ccc(NC(=O)[C@H](C)NC(=O)[C@](C)(O)c4ccccc4)cc3)[nH]n2)cc1 [OL-46, (2R,2′R)-N,N′-(1H-pyrazole-3,5-diylbis(4,1-phenyleneimino((2S)-1-oxo-1,2-propanediyl)))bis(2-hydroxy-2-phenylpropanamide)]	4.57 to 99 nM	–
O=C(Nc1ccc(-c2cnc(-c3ccc(NC(=O)[C@@H]4CCCN4C(=O)[C@@H](O)c4ccccc4)cc3)o2)cc1)[C@@H]1CCCN1C(=O)[C@@H](O)c1ccccc1 [JG-20, (2S,2′S)-N,N′-(1,3-oxazole-2,5-diyldi-4,1-phenylene)bis(1-((2S)-2-hydroxy-2-phenylacetyl)-2-pyrrolidinecarboxamide)]	4.57 to 99 nM	–
Cc1ccc(C)c(C(=O)N2CCC[C@H]2C(=O)Nc2ccc(-c3cnc(-c4ccc(NC(=O)[C@@H]5CCCN5C(=O)c5cc(C)ccc5C)cc4)o3)cc2)c1 [XY-43, (2S,2′S)-N,N′-(1,3-oxazole-2,5-diyldi-4,1-phenylene)bis(1-(2,5-dimethylbenzoyl)-2-pyrrolidinecarboxamide)]	–	EC50 [3]: 1000 to 10000 nM
Cn1cccc1CC(=O)N1CCC[C@H]1C(=O)Nc1ccc(-c2cnc(-c3ccc(NC(=O)[C@@H]4CCCN4C(=O)Cc4cccn4C)cc3)o2)cc1 [XY-40, (2S,2′S)-N,N′-(1,3-oxazole-2,5-diyldi-4,1-phenylene)bis(1-((1-methyl-1H-pyrrol-2-yl)acetyl)-2-pyrrolidinecarboxamide)]	–	EC50 [3]: 100 to 999 nM
O=C(Nc1ccc(-c2cnc(-c3ccc(NC(=O)[C@@H]4CCCN4C(=O)C(O)Cc4c[nH]c5ccccc45)cc3)o2)cc1)[C@@H]1CCCN1C(=O)C(O)Cc1c[nH]c2ccccc12 (stereo partly drawn) [JR-5, (2S,2′S)-N,N′-(2,5-oxazolediyldi-4,1-phenylene)bis[1-[2-hydroxy-3-(1H-indol-3-yl)-1-oxopropyl]-2-pyrrolidinecarboxamide]]	–	EC50 [3]: 100 to 999 nM
O=C(Nc1ccc(-c2cnc(-c3ccc(NC(=O)[C@@H]4CCCN4C(=O)C(O)C(F)(F)F)cc3)o2)cc1)[C@@H]1CCCN1C(=O)C(O)C(F)(F)F (stereo partly drawn) [JR-2, (2S,2′S)-N,N′-(2,5-oxazolediyldi-4,1-phenylene)bis[1-(3,3,3-trifluoro-2-hydroxy-1-oxopropyl)-2-pyrrolidinecarboxamide]]	–	EC50 [3]: 100 to 999 nM
O=C(Nc1ccc(-c2nnc(-c3ccc(NC(=O)[C@@H]4CCCN4C(=O)[C@H]4CCCO4)cc3)o2)cc1)[C@@H]1CCCN1C(=O)[C@H]1CCCO1 [RK-15, (2S,2′S)-N,N′-(1,3,4-oxadiazole-2,5-diyldi-4,1-phenylene)bis(1-((2R)-tetrahydro-2-furanylcarbonyl)-2-pyrrolidinecarboxamide)]	1000 to 10000 nM	–
CCOC(=O)Cc1nc(-c2ccc(NC(=O)[C@@H]3CCCN3C(=O)OCc3ccccc3)cc2)c(-c2ccc(NC(=O)[C@@H]3CCCN3C(=O)OCc3ccccc3)cc2)o1 [OL-2, 4,5-bis[4-[[[(2S)-1-[(phenylmethoxy)carbonyl]-2-pyrrolidinyl]carbonyl]amino]phenyl]-2-oxazoleacetic acid, ethyl ester]	1000 to 10000 nM	–
CN(C)[C@H](C(=O)N1CCC[C@H]1C(=O)Nc1ccc(-c2cnc(-c3ccc(NC(=O)[C@@H]4CCCN4C(=O)[C@H]([C@H](O)c4ccsc4)N(C)C)cc3)o2)cc1)[C@H](O)c1ccsc1 [JR-16, (S,R,2S)-N,N′-(4,4′-(oxazole-2,5-diyl)bis(4,1-phenylene))bis(1-((2S,3R)-2-(dimethylamino)-3-hydroxy-3-(thiophen-3-yl)propanoyl)pyrrolidine-2-carboxamide)]	–	EC50 [5]: 1000 to 10000 nM
COc1ccccc1C(=O)N1CCC[C@H]1C(=O)Nc1ccc(-c2nnc(-c3ccc(NC(=O)[C@@H]4CCCN4C(=O)c4ccccc4OC)cc3)o2)cc1 [RK-6, (2S,2′S)-N,N′-(1,3,4-oxadiazole-2,5-diyldi-4,1-phenylene)bis(1-(2-methoxybenzoyl)-2-pyrrolidinecarboxamide)]	100 to 999 nM	–
O=C(Nc1ccc(-c2nc[nH]c2-c2ccc(NC(=O)[C@@H]3CCCN3C(=O)c3nc(Cl)cc4ccccc34)cc2)cc1)[C@@H]1CCCN1C(=O)c1nc(Cl)cc2ccccc12 [JG-49, (2S,2′S)-N,N′-(1H-imidazole-4,5-diyldi-4,1-phenylene)bis(1-((3-chloro-1-isoquinolinyl)carbonyl)-2-pyrrolidinecarboxamide)]	1000 to 10000 nM	–
O=C(Nc1ccc(-c2nc[nH]c2-c2ccc(NC(=O)[C@@H]3CCCN3C(=O)c3nccc4ccccc34)cc2)cc1)[C@@H]1CCCN1C(=O)c1nccc2ccccc12 [JG-48, (2S,2′S)-N,N′-(1H-imidazole-4,5-diyldi-4,1-phenylene)bis(1-(1-isoquinolinylcarbonyl)-2-pyrrolidinecarboxamide)]	1000 to 10000 nM	EC50 [2]: 2340 nM
C[C@H](NC(=O)[C@@H]1CCCO1)C(=O)Nc1ccc(-c2nnc(-c3ccc(NC(=O)[C@H](C)NC(=O)[C@@H]4CCCO4)cc3)o2)cc1 [RK-34, (2S,2′S)-N,N′-(1,3,4-oxadiazole-2,5-diylbis(4,1-phenyleneimino((2S)-1-oxo-1,2-propanediyl)))ditetrahydro-2-furancarboxamide]	–	EC50 [5]: 1000 to 10000 nM
O=C(Nc1ccc(-c2cnc(-c3ccc(NC(=O)N[C@@H]4CCN(C(=O)[C@H](O)c5ccccc5)C4)cc3)o2)cc1)N[C@@H]1CCN(C(=O)[C@H](O)c2ccccc2)C1 [FY-5, N′,N′″-(1,3-oxazole-2,5-diyldi-4,1-phenylene)bis(1-((3R)-1-((2R)-2-hydroxy-2-phenylacetyl)-3-pyrrolidinyl)urea)]	100 to 999 nM	–
O=C(Nc1ccc(-c2cnc(-c3ccc(NC(=O)C4CC5CC5N4C(=O)C(O)c4ccccc4)cc3)o2)cc1)C1CC2CC2N1C(=O)C(O)c1ccccc1 [CB-5, (1S,3S,5S,1′S,3′S,5′S)-N,N′-(1,3-oxazole-2,5-diyldi-4,1-phenylene)bis(2-((2S)-2-hydroxy-2-phenylacetyl)-2-azabicyclo[3.1.0]hexane-3-carboxamide)]	–	EC50 [4]: 4.57 to 99 nM
